# Assay results as given in US20110184018A1, “METHOD FOR TREATING PERIPHERAL NEUROPATHIC PAIN” (LOHOCLA RESEARCH CORPORATION, priority 2005, published 2011).
# Columns and labels:
# [1] = system: rats following spinal nerve ligation (SNL); assay: Thermal and tactile hyperalgesia after spinal nerve ligation (SNL); format: in vivo, rat
# Method: FIG. 7 illustrates the scheme for testing the DCUK ethyl ester in neuropathic pain models. In FIG. 7 graphs showing attenuation of tactile (Panel A) and thermal (Panel B) hyperalgesia in animals following spinal nerve ligation (SNL) are provided. DCUK-OEt (30 or 100 mg/kg) was administered at the time indicated by the arrow. Hyperalgesic responses were followed for the next 180 minutes. The shaded area represents the area of hyperalgesia produced by SNL. BL on the X-axis represents the baseline response of animals prior to spinal nerve ligation. SNL represents the response of the animals after spinal nerve ligation and prior to receiving the DCUKA ethyl ester.
# Spinal Nerve Ligation and Sham Surgery. Anesthesia was maintained with 0.5% halothane in oxygen. After surgical preparation of the rats, a 2-cm paraspinal incision was made at the level L4-S2. The unilateral L5 and L6 spinal nerves were exposed and tightly ligated distal to the dorsal root ganglia by using 4-0 silk suture. The incisions were closed, and animals were allowed to recover. Sham-operated control rats were prepared in an identical manner without L5/L6 nerve ligation. […] Separate groups of animals were used in tests for thermal and tactile hypersensitivity.
# Tactile Hypersensitivity Test and Evaluation. Animals were placed in a suspended plastic chamber with a wire mesh platform and allowed to habituate for 15 minutes. Tactile hypersensitivity was determined by measuring paw withdrawal threshold in response to probing the plantar surface of the left hind paw with a series of 8 calibrated von Frey filaments (0.40, 0.70, 1.20, 2.00, 3.63, 5.50, 8.50, and 15.1 g). Measurements were taken before surgery and before and after administration of drug or vehicle. Withdrawal threshold was determined by sequentially increasing and decreasing stimulus intensity (“up and down” method), analyzed by using a Dixon nonparametric test, and expressed as the paw withdrawal threshold in gram force values. All studies were carried out 7 days after spinal nerve ligation (SNL).
# Thermal Hypersensitivity Test (Radiant Heat Paw Withdrawal Test). Rats were placed in clear plastic chambers on a glass surface and were habituated for 15 minutes before testing. Thermal sensitivity was measured by using paw withdrawal latency to a radiant heat stimulus. A radiant heat source (i.e., infrared) was activated with a timer and focused onto the plantar surface of the left hind paw of a rat, and the latency to paw withdrawal was measured. A motion detector that halted both lamp and timer when the paw was withdrawn determined paw withdrawal latency. The latencies were measured before surgery and before and after drug or vehicle administration. A maximum cutoff of 33 seconds was used to prevent tissue damage. […]
# [2] = system: primary cultures of rat cerebellar granule cells; assay: Glutamate-induced excitotoxic cell death; format: cell-based; settings: 100 micromolar glutamate
# Method: Glutamate Excitotoxicity. Primary cultures of cerebellar granule cells were prepared from 7-day-old Sprague-Dawley rats. The cultures were maintained in plates containing 24 wells (volume of 1 mL/well). Culture density was about 1.5×10^6 cells/mL. Cell viability was assayed after 7 or 8 days in culture by the production of fluorescein, formed from fluorescein diacetate by esterases present in living cells. Cells were washed with magnesium ion-free Locke's buffer, and then exposed to 100 μM glutamate alone, glutamate and 10 μM glycine, or each of these conditions in the presence of 100 μM DCUKA or 100 μM DCUK-OMe at 25° C. for 30 minutes. DCUKA and DCUK-OMe were added in 2-μl aliquots to yield a final DMSO concentration of 0.2%. […] Fluorescence of each well was measured on a Perkin-Elmer HTS7000 plate reader (excitation 485 nm; emission 535 nm; 16 measurements per well) with optimal gain settings. For each 24-well plate, the fluorescence of one control culture well (i.e., not exposed to glutamate) was automatically set to the highest fluorescence value, and fluorescence values were determined in all other wells with the same gain settings. Fluorescence measurements in all 24 wells were normalized to the control culture and expressed as a percentage of this value. Data are expressed as percentage of cell death (100-percentage of control). […]
# [3] = biological target: rat brain type IIA Na+ channel (Nav1.2) (Rattus norvegicus, UniProt P04775); assay: Whole-cell patch clamp recordings of Na+ currents in CNaIIA-1 cells; format: cell-based; settings: fit of shift of inactivation curve
# Chain of rat brain type IIA Na+ channel (Nav1.2) (P04775 whole entry): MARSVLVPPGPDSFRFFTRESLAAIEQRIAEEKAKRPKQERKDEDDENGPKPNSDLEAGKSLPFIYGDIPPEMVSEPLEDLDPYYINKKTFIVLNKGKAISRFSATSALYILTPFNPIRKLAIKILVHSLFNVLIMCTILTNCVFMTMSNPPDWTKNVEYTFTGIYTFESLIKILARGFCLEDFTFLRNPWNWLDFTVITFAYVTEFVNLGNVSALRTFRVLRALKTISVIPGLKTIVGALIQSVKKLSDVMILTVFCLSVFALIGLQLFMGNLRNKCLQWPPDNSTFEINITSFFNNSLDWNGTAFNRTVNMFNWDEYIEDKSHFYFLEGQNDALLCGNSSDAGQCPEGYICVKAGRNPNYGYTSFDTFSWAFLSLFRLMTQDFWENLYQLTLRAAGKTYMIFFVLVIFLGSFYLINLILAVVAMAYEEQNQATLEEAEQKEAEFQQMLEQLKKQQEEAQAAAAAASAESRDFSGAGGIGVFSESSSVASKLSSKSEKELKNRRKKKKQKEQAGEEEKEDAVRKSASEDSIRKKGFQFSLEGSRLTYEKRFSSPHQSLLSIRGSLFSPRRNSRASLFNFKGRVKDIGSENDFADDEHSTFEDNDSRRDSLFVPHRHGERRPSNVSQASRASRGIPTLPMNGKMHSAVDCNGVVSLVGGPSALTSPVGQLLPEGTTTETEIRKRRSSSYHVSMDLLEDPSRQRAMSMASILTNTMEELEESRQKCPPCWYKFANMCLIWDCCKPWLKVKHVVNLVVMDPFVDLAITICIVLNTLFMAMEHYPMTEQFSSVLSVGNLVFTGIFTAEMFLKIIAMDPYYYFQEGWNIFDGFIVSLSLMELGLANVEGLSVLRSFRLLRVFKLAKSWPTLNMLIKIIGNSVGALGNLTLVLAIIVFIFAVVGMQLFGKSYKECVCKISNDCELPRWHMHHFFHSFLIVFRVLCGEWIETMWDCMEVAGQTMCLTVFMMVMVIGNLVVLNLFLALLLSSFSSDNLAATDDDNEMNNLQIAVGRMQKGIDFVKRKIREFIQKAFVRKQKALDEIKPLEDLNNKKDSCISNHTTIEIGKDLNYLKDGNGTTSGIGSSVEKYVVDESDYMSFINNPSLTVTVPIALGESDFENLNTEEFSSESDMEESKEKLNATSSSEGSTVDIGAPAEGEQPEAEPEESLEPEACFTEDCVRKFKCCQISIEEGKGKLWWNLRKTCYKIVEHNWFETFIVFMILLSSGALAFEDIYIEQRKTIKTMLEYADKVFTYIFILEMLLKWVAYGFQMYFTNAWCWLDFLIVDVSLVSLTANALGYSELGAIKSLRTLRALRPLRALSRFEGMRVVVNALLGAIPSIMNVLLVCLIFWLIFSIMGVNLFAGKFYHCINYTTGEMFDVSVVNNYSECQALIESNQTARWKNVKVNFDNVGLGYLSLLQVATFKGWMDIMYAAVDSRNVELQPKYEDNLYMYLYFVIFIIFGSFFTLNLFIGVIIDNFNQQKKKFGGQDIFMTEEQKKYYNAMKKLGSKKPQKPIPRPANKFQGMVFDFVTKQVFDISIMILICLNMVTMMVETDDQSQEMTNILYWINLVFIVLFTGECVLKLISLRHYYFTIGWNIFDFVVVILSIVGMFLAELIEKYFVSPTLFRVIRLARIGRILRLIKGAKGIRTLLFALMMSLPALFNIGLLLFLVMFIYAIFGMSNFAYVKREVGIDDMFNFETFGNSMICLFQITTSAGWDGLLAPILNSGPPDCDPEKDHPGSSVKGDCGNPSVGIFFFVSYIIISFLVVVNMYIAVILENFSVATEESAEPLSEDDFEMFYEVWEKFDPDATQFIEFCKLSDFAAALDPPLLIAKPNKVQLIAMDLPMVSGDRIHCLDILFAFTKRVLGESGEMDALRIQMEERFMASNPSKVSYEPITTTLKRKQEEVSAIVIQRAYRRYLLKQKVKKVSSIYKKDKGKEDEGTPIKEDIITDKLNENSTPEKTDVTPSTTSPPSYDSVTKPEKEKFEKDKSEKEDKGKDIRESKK
SMILES,normalization of thermal versus tactile hyperalgesia ([1]; 30 or 100 mg/kg),"inhibition of thermal hyperalgesia ([1]; i.p., 100 mg/kg) [%]","reduction of thermal hyperalgesia ([1]; oral, 200 mg/kg emulsion)","inhibition of thermal hyperalgesia ([1]; p.o., about 150 mg/kg) [%]",protection from glutamate-induced damage ([2]; 100 μM compound),reduction of cell death ([2]; 10 micromolar compound),"Ki ([3]; read-out: KI, dissociation constant for inactivated states) [µM]","Kd ([3]; read-out: KR, dissociation constant for the resting state) [µM]"
"CCOC(=O)c1cc(NC(=O)N(c2ccccc2)c2ccccc2)c2c(Cl)cc(Cl)cc2n1 [DCUK-OEt, N,N-diphenyl-4-ureido-5,7-dichloro-2-carboxy quinoline ethyl ester]",thermal hyperalgesia is normalized by administration of DCUKA ethyl ester to a greater extent than tactile hyperalgesia,75,about 70%,45,,,,
"O=C(O)c1cc(NC(=O)N(c2ccccc2)c2ccccc2)c2c(Cl)cc(Cl)cc2n1 [DCUKA, N,N-diphenyl-4-ureido-5,7-dichloro-2-carboxyquinoline]",,,,,completely protected,more than 50%,9.8,244
